From US20200276181A1, “THIENOISOQUINOLINES AND THEIR DERIVATIVES FOR TARGETING TUBULIN, CH-TOG, AURORA A KINASE, TPX2, CDK5RAP2 AND/OR ASPM” (VALORBEC, SEC, priority 2017, published 2020)

Assays:
A549 cells [1] = assay: IC50 of derivatives (Table 5); assay type: cell-based, human; conditions: Homo sapiens; Table 5; cell line only named in b213 (A549)
[2] = target: T1, GFP-tagged ch-TOG (CKAP5) (Homo sapiens, UniProt Q14008); assay: GFP-tagged ch-TOG localization; assay type: cell-based; conditions: mitotic HeLa cells vs non-treated
T1 construct: expressed in transfected cells; host or cells: HeLa
Experimental: As shown in FIG. 2L and FIG. 6, in HeLa cells expressing SiR-tubulin or GFP-tagged ch-TOG (CKAP5), which localizes to centrosomes, the addition of 100-300 nM of C75 causes the spindle poles to collapse together in metaphase cells within 1-2 minutes. The spindles recover, but become uneven or multipolar.
ch-TOG contains multiple TOG domains that bind to tubulin dimers, and a microtubule-binding domain that binds to the microtubule lattice. If C75 were to bind and inhibit one or more of the TOG domains, this would shift its affinity onto microtubules, while inhibiting the microtubule domain would cause ch-TOG to become cytosolic.

HCT 116 cells = assay: Spindle phenotypes, paclitaxel and C75 combination; assay type: cell-based; conditions: 7 hours, at 100 and 200 nM
Experimental: FIG. 3A) is a line graph showing cytotoxicity of HeLa cells after treatment with varying concentrations of C75+/−a subthreshold dose of paclitaxel (Taxol™; 3 nM). The IC50 is shown by the dotted line. Bars show standard deviation. FIG. 3B) is a line graph showing the percentage of mitotic HeLa or HFF1 cells treated with a range of paclitaxel concentrations+/−C75 as indicated. The bars indicate standard deviation. FIG. 3C) is a series of bar graphs showing the proportion of HCT 116 cells with bipolar aligned (grey), bipolar misaligned (dark grey), multipolar/fragmented (light grey, top portion of each bar) or monopolar (black) spindles 7 hours after treatment with control (DMSO), varying concentrations of paclitaxel or C75, or both as indicated (n=691; N=3). The bars show standard deviation. The combination treatments were compared to paclitaxel and C75 on their own by calculating ratios varying from the predicted ratio, and found to synergize at 100 and 200 nM. FIG. 3D) is bar graph showing the average distance between centrosome fragments in HCT116 cells after treatments as shown. While centrosome fragments moved closer together with increased concentrations of paclitaxel, they moved further apart with increased concentrations of C75 (n=105; N=3). […]

[3] = test system: HeLa, A549 and HCT116 cancer cells compared to HFF-1 non-cancer cells; assay: Selective toxicity, high-throughput automated analysis; assay type: cell-based; conditions: A549, HCT116 vs HFF-1
Experimental: (§1) FIG. 1A) is a line graph showing changes in the percentage of viable HFF-1, HeLa, A549 and HCT 116 cells after treatment with a range of C75 concentrations for 3 population doubling times (N=3). […] There were more rounded mitotic cells after C75 treatment in comparison to the control. FIG. 1C) is a line graph showing the percentage of HeLa and HFF1 cells in mitosis after treatment with various concentrations of C75 for 8 hours. The bars indicate standard deviation. FIG. 1D) is a series of images showing cells that were fixed and co-stained for tubulin (microtubules) and DAPI (DNA). Treatment of HeLa cells with 300 nM C75 caused the mitotic spindles to be disorganized, while they were not affected in HFF1 cells. […] The scale bar for the cells is 10 μm. […] FIG. 1F) is a cartoon schematic showing the key features of a metaphase cell.
(§2) The images in FIG. 1B) show fields of view of HeLa cells treated with (dimethyl sulfoxide) DMSO or 500 nM of C75. […] Higher concentrations of C75 caused spindle phenotypes in HFF1 cells, but they were quite different in comparison to HeLa cells (FIG. 1D).

A549 cells [4] = assay: Viability IC50 of C75 in combination with subthreshold colchicine; assay type: cell-based, human; conditions: + 9 nM colchicine
HFF1 cells = assay: Spindle morphology, fixed cells stained for tubulin and DAPI; assay type: cell-based; conditions: 300 nM
Experimental: as §1, §2

[5] = test system: MCF7, BT549, A549, HCT116, HeLa cells; assay: Viability in cancer vs non-cancer cell lines, summary of Table 3; assay type: cell-based, human
Experimental: To date, 30 variants with different structural modifications have been made. […] In particular, it is shown that C75 causes death in multiple cancer cells with IC50 values in the 100-400 nM range, including breast cancers (MCF7, BT549), lung cancer (A549), colorectal cancer (HCT116) in addition to HeLa cells (cervical cancer).

T1 sequence (Q14008 whole entry): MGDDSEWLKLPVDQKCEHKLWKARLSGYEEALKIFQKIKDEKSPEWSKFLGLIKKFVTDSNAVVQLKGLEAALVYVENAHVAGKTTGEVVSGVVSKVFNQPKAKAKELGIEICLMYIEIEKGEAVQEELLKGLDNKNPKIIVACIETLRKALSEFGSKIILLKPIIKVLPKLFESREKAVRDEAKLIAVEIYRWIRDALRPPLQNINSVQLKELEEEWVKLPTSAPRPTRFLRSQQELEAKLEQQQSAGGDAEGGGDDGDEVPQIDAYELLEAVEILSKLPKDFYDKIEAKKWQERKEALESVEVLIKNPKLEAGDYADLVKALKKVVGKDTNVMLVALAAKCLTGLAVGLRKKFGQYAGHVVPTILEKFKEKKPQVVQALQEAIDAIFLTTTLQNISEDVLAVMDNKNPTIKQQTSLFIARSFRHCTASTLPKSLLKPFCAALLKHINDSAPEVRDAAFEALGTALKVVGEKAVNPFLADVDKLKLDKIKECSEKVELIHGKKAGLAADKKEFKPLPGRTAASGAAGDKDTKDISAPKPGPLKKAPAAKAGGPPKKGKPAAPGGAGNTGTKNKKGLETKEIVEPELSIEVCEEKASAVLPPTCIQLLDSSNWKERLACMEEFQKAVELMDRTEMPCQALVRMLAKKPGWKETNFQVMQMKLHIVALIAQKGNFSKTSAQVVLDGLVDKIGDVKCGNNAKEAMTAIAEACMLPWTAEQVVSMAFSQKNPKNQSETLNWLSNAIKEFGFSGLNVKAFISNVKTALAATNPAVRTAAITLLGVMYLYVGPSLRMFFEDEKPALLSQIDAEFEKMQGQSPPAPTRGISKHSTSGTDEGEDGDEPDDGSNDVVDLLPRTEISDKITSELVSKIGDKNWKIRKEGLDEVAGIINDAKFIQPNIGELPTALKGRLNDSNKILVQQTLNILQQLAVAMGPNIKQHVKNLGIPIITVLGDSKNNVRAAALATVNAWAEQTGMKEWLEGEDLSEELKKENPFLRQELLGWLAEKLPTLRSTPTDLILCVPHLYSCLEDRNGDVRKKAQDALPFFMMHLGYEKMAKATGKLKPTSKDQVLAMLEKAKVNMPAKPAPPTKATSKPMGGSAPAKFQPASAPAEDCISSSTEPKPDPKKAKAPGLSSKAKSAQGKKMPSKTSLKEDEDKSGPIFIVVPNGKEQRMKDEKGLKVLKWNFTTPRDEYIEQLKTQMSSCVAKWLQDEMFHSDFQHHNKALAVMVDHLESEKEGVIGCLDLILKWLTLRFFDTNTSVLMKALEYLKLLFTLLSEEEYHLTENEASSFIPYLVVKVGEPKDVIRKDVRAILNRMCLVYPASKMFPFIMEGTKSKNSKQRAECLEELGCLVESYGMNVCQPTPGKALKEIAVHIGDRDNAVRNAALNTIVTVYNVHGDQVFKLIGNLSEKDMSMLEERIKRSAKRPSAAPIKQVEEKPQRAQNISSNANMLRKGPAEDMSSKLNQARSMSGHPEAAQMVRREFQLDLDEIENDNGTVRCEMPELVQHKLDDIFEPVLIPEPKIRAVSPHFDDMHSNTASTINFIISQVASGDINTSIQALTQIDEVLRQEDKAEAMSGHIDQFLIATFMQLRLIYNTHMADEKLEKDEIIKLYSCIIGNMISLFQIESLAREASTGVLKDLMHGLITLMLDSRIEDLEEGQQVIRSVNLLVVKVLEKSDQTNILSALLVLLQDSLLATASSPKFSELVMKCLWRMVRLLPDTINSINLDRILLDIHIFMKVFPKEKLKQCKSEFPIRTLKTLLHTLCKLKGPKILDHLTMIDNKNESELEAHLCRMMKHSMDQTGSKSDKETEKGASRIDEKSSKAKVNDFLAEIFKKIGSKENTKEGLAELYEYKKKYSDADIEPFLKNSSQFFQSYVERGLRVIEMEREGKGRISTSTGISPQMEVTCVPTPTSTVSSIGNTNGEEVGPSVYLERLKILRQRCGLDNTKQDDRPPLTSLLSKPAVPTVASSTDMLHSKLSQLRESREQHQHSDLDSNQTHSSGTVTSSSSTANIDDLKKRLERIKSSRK

Structure (SMILES): COc1ccc(S(=O)(=O)N2Cc3ccccc3-c3sc(Br)cc32)cc1 [Compound C75]
- IC50 (A549 cells [1]): 431 nM
- ch-TOG localization after treatment [2]: enriched at the centrosomes
- combination with paclitaxel vs each alone, spindle phenotypes (HCT 116 cells): synergize
- toxicity in cancer cells compared to HFF-1 non-cancer cells [3]: selectively cause toxicity
- lowering of the IC50 of C75 by subthreshold colchicine (A549 cells [4]): ~2 fold
- mitotic spindle morphology (HFF1 cells): not affected
- efficacy (effect on viability) in cancer cells vs. non-cancer cells [5]: higher efficacy
- IC50 ([5]; Homo sapiens, MCF7, BT549, A549, HCT116, HeLa, read-out: IC50 values in multiple cancer cells): 100 to 400 nM
